The target of this experiment is T1, soluble epoxide hydrolase (sEH) (Oryctolagus cuniculus, UniProt A0A5F9CRP6).
T1 construct: gene ADAM2
T1 sequence (A0A5F9CRP6 1-555): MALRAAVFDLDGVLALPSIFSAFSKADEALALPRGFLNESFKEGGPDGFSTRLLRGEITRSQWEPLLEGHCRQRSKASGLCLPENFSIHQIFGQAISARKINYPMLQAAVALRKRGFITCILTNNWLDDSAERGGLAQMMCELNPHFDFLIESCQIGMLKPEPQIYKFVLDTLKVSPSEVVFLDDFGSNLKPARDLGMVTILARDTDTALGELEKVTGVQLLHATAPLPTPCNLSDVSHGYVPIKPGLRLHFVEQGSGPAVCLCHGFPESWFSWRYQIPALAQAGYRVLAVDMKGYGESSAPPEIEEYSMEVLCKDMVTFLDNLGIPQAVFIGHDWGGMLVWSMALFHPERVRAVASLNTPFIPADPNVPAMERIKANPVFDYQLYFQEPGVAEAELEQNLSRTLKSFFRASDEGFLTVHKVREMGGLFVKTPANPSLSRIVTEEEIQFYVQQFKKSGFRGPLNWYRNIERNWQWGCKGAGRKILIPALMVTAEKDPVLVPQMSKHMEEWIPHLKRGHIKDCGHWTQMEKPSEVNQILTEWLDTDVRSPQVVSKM
Description: biochemical.

`CS(=O)(=O)N1CCC(NC(=O)Nc2ccc(OC(F)(F)F)cc2)CC1` [UC1709, TUPS] displayed an IC50 of 88 nM.

One may read the IC50 as the concentration at which inhibition is half-maximal. High values mean weaker potency in that assay, low ones greater potency in that assay.

The values above are taken from PMC5218821 (Journal of ocular biology, 2016).
